# Reference: patent US20250262201A1, “COMPOUNDS AND METHODS USEFUL FOR STABILIZING PHENYLALANINE HYDROXYLASE MUTATIONS” (Agios Pharmaceuticals, Inc., priority 2022, published 2025)
# Biological target: T1, human PAH with the R408W mutation (Homo sapiens, UniProt P00439, R408W)
# T1 construct: expressed in transfected cells
# T1 sequence (P00439 1-452 R408W): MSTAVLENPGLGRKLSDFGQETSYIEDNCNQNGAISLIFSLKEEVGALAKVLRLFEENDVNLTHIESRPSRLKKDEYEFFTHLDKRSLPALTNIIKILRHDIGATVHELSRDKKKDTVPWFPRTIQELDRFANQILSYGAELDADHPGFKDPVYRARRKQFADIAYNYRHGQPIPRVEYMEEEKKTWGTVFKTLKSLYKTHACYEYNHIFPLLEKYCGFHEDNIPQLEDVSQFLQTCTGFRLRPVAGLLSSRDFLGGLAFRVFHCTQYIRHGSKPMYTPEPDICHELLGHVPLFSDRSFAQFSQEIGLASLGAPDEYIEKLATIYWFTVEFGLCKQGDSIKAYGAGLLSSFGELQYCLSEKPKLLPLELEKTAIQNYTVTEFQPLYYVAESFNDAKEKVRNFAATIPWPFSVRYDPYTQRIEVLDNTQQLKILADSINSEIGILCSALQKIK
# Test: Cell Based Phenylalanine Flux Assay
# Design: scale not given here
# Settings: A375 R408W cells, 24 hrs with compound, then 20 μM sepiapterin and 800 μM 13C9,15N-Phenylalanine for 4 hours; 13C-Tyrosine by LC-MS; average where tested multiple times
row,AC50,Structure (SMILES)
1,"E, E","CC1CN(C(=O)c2oc(C(C)(C)O)nc2C(F)(F)F)C(c2cc3ccccc3cn2)c2nc[nH]c21 [(4S, 7R) diastereomer of (2-(2-hydroxypropan-2-yl)-4-(triflu]"
2,"E, E",Cn1cnc(-c2nc(C(F)F)c(C(=O)N3CCc4[nH]cnc4C3c3ncc4ccccc4n3)o2)c1 (stereo not shown)
3,"E, E",O=C(c1oc(-c2cnccn2)nc1C(F)F)N1CCc2[nH]cnc2C1c1ncc2ccccc2n1 (stereo not shown)

# Same assay, conditions: A375 R408W cells, 24 hrs with compound, then 20 μM sepiapterin and 800 μM 13C9,15N-Phenylalanine for 4 hours; 13C-Tyrosine by LC-MS; average where tested multiple times; read-out: AC50
row,AC50,Structure (SMILES)
1,> 5000 nM,O=C(c1nnc(-c2cn[nH]c2)o1)N1CCc2[nH]cnc2C1c1ccc2ccccc2n1 (stereo not shown)
2,> 5000 nM,O=C(c1cnn(-c2ccccn2)c1Cl)N1CCc2[nH]cnc2C1c1ccc2ccccc2n1 (stereo not shown)
3,1000 to 5000 nM,COCCc1ccc2c(C(=O)N3CCc4[nH]cnc4C3c3ccc4ccccc4n3)cnn2c1 (stereo not shown)
4,> 5000 nM,O=C(c1nnc(-c2ccc(C(F)(F)F)cn2)o1)N1CCc2[nH]cnc2C1c1ccc2ccccc2n1 (stereo not shown)

# The remaining lines, values behind:
row,Structure (SMILES),AC50
1,Cc1ncoc1CC(=O)N1CCc2[nH]cnc2C1c1cn2ccccc2n1 (stereo not shown),> 5000 nM
2,O=C(c1cnc(C(F)(F)F)o1)N1CCc2[nH]cnc2C1c1cn2ccccc2n1 (stereo not shown),1000 to 5000 nM
3,CN(C)Cc1nnc(C(=O)N2CCc3[nH]cnc3C2c2ccc3ccccc3n2)o1 (stereo not shown),1000 to 5000 nM
4,Cc1nnc(CC(=O)N2CCc3[nH]cnc3C2c2cn3ccccc3n2)s1 (stereo not shown),> 5000 nM
5,O=C(c1nnc(-c2ccc(C(F)(F)F)cc2)o1)N1CCc2[nH]cnc2C1c1ccc2ccccc2n1 (stereo not shown),1000 to 5000 nM
6,O=C(c1nnc(C2CC2)o1)N1CCc2[nH]cnc2C1c1cc2ccccc2nn1 (stereo not shown),1000 to 5000 nM
7,CN(C)c1nnc(C(=O)N2CCc3[nH]cnc3C2c2ncc3ccccc3n2)o1 (stereo not shown),> 5000 nM
8,CC(C)(C)c1nnc(C(=O)N2CCc3[nH]cnc3C2c2cc3ccccc3nn2)o1 (stereo not shown),1000 to 5000 nM
9,CN1CCN(c2nnc(C(=O)N3CCc4[nH]cnc4C3c3ccc4ccccc4n3)o2)CC1 (stereo not shown),1000 to 5000 nM

# Same assay, conditions: A375 cells expressing human R408W PAH; 24 hrs compound incubation; 13C-Tyrosine by LC-MS; average where tested multiple times; read-out: AC50
row,AC50,Structure (SMILES)
1,> 5000 nM,"O=C(c1nnc(-c2ccccn2)o1)N1CCc2[nH]cnc2[C@@H]1c1cc2ccccc2cn1 [Example 325, (S)-(4-(isoquinolin-3-yl)-6,7-dihydro-1H-imidazo[4,5-c]pyridin-5(4H)-yl)(5-(pyridin-2-yl)-1,3,4-oxadiazol-2-yl)methanone]"
2,< 500 nM,"O=C(c1cnn2cc(-c3ccccn3)ccc12)N1CCc2[nH]cnc2[C@H]1c1cc2ccccc2cn1 [Example 461, (R)-(4-(isoquinolin-3-yl)-6,7-dihydro-1H-imidazo[4,5-c]pyridin-5(4H)-yl)(6-(pyridin-2-yl)pyrazolo[1,5-a]pyridin-3-yl)methanone]"
3,500 to 1000 nM,"O=C(c1nnc(N2CCOCC2)o1)N1CCc2[nH]cnc2[C@H]1c1cc2ccccc2cn1 [Example 433, (R)-(4-(isoquinolin-3-yl)-6,7-dihydro-1H-imidazo[4,5-c]pyridin-5(4H)-yl)(5-morpholino-1,3,4-oxadiazol-2-yl)methanone]"
4,1000 to 5000 nM,"Cc1nc(C(C)(C)C#N)oc1C(=O)N1CCc2[nH]cnc2C1c1ccc2ccccc2n1 (stereo in doubt) [Example 117, (S)-2-methyl-2-(4-methyl-5-(4-(quinolin-2-yl)-4,5,6,7-tetrahydro-1H-imidazo[4,5-c]pyridine-5-carbonyl)oxazol-2-yl)propanenitrile]"
5,< 500 nM,"O=C(c1ocnc1-c1ccccc1)N1CCc2[nH]cnc2[C@H]1c1cc2ccccc2cn1 [Example 348, (R)-(4-(isoquinolin-3-yl)-6,7-dihydro-1H-imidazo[4,5-c]pyridin-5(4H)-yl)(4-phenyloxazol-5-yl)methanone]"
6,< 500 nM,"O=C(c1nnc(C2CC2)o1)N1CCc2[nH]cnc2[C@H]1c1cc2ccccc2cn1 [Example 326, (R)-(5-cyclopropyl-1,3,4-oxadiazol-2-yl)(4-(isoquinolin-3-yl)-6,7-dihydro-1H-imidazo[4,5-c]pyridin-5(4H)-yl)methanone]"
7,> 5000 nM,"Cc1nc(C(C)(C)O)oc1C(=O)N1CCc2[nH]cnc2[C@@H]1c1ccc2ccccc2n1 (single isomer, unassigned) [Example 14]"
8,500 to 1000 nM,"C[C@@H]1CN(C(=O)c2nnc(-c3ccccn3)o2)[C@H](c2cc3ccccc3cn2)c2nc[nH]c21 (single isomer, unassigned) [Example 388]"
9,< 500 nM,"CN1CCN(c2cn3ncc(C(=O)N4CCc5[nH]cnc5[C@H]4c4cc5ccccc5cn4)c3cc2Cl)CC1 [Example 464, (R)-(5-chloro-6-(4-methylpiperazin-1-yl)pyrazolo[1,5-a]pyridin-3-yl)(4-(isoquinolin-3-yl)-6,7-dihydro-1H-imidazo[4,5-c]pyridin-5(4H)-yl)methanone]"
10,< 500 nM,"O=C(c1cnn2ccccc12)N1CCc2[nH]cnc2[C@H]1c1cn2ccccc2n1 [Example 225, (R)-(4-(imidazo[1,2-a]pyridin-2-yl)-6,7-dihydro-1H-imidazo[4,5-c]pyridin-5(4H)-yl)(pyrazolo[1,5-a]pyridin-3-yl)methanone]"
11,1000 to 5000 nM,"O=C(c1cnco1)N1CCc2[nH]cnc2[C@@H]1c1cc2ccccc2cn1 [Example 321, (S)-(4-(isoquinolin-3-yl)-6,7-dihydro-1H-imidazo[4,5-c]pyridin-5(4H)-yl)(oxazol-5-yl)methanone]"
12,1000 to 5000 nM,"O=C(c1cn(-c2ccccn2)nc1Cl)N1CCc2[nH]cnc2C1c1ccc2ccccc2n1 (stereo in doubt) [Example 110, (S)-(3-chloro-1-(pyridin-2-yl)-1H-pyrazol-4-yl)(4-(quinolin-2-yl)-6,7-dihydro-1H-imidazo[4,5-c]pyridin-5(4H)-yl)methanone]"
13,< 500 nM,"CN(C)c1ccc2c(C(=O)N3CCc4[nH]cnc4[C@H]3c3cc4ccccc4cn3)cnn2c1 [Example 470, (R)-(6-(dimethylamino)pyrazolo[1,5-a]pyridin-3-yl)(4-(isoquinolin-3-yl)-6,7-dihydro-1H-imidazo[4,5-c]pyridin-5(4H)-yl)methanone]"
14,< 500 nM,"N#Cc1ncoc1C(=O)N1CCc2[nH]cnc2[C@H]1c1ncc2ccccc2n1 [Example 147, (S)-5-(4-(quinazolin-2-yl)-4,5,6,7-tetrahydro-1H-imidazo[4,5-c]pyridine-5-carbonyl)oxazole-4-carbonitrile]"
15,< 500 nM,"Cc1ncc(CC(=O)N2CCc3[nH]cnc3[C@H]2c2cc3ccccc3cn2)o1 [Example 372, (R)-1-(4-(isoquinolin-3-yl)-6,7-dihydro-1H-imidazo[4,5-c]pyridin-5(4H)-yl)-2-(2-methyloxazol-5-yl)ethanone]"
16,< 500 nM,"Cc1nc(C2CC2)oc1C(=O)N1CCc2[nH]cnc2C1c1ccc2ccccc2n1 (stereo in doubt) [Example 35, (R)-(2-cyclopropyl-4-methyloxazol-5-yl)(4-(quinolin-2-yl)-6,7-dihydro-1H-imidazo[4,5-c]pyridin-5(4H)-yl)methanone]"
17,1000 to 5000 nM,"O=C(c1cncs1)N1CCc2[nH]cnc2[C@H]1c1ccc2ccccc2c1 [Example 221, (R)-(4-(naphthalen-2-yl)-6,7-dihydro-1H-imidazo[4,5-c]pyridin-5(4H)-yl)(thiazol-5-yl)methanone]"

# More lines, now with the values behind:
row,Structure (SMILES),AC50
1,"O=C(c1nnc(-c2cnn(C(F)F)c2)o1)N1CCc2[nH]cnc2[C@H]1c1ncc2ccccc2n1 [Example 185, (S)-(5-(1-(difluoromethyl)-1H-pyrazol-4-yl)-1,3,4-oxadiazol-2-yl)(4-(quinazolin-2-yl)-6,7-dihydro-1H-imidazo[4,5-c]pyridin-5(4H)-yl)methanone]",< 500 nM
2,"C[C@H]1CN(C(=O)c2nnc(C(C)(C)C)o2)[C@H](c2cc3ccccc3cn2)c2nc[nH]c21 [Example 428, (5-(tert-butyl)-1,3,4-oxadiazol-2-yl)((4R,7S)-4-(isoquinolin-3-yl)-7-methyl-6,7-dihydro-1H-imidazo[4,5-c]pyridin-5(4H)-yl)methanone]",500 to 1000 nM
3,"O=C(CC1CC1)N1CCc2[nH]cnc2C1c1ccc2ccccc2n1 (stereo in doubt) [Example 42, (S)-2-cyclopropyl-1-(4-(quinolin-2-yl)-6,7-dihydro-1H-imidazo[4,5-c]pyridin-5(4H)-yl)ethanone]",1000 to 5000 nM
4,"FC(F)c1nnc(N2CCc3[nH]cnc3[C@H]2c2cn3ccccc3n2)o1 [Example 230, (R)-2-(difluoromethyl)-5-(4-(imidazo[1,2-a]pyridin-2-yl)-6,7-dihydro-1H-imidazo[4,5-c]pyridin-5(4H)-yl)-1,3,4-oxadiazole]",500 to 1000 nM
5,"COCc1nc(C(F)F)c(C(=O)N2CCc3[nH]cnc3C2c2ccc3ccccc3n2)o1 (stereo in doubt) [Example 78, (S)-(4-(difluoromethyl)-2-(methoxymethyl)oxazol-5-yl)(4-(quinolin-2-yl)-6,7-dihydro-1H-imidazo[4,5-c]pyridin-5(4H)-yl)methanone]",< 500 nM
6,"O=C(c1nnc(C2CC2)o1)N1CCc2[nH]cnc2C1c1ccc2ccccc2n1 (stereo in doubt) [Example 10, (S)-(5-cyclopropyl-1,3,4-oxadiazol-2-yl)(4-(quinolin-2-yl)-6,7-dihydro-1H-imidazo[4,5-c]pyridin-5(4H)-yl)methanone]",1000 to 5000 nM
7,"C[C@@H]1CN(C(=O)c2oc(C(C)(C)O)nc2C2CC2)[C@H](c2cc3ccccc3cn2)c2nc[nH]c21 [Example 402, (4-cyclopropyl-2-(2-hydroxypropan-2-yl)oxazol-5-yl)((4R,7R)-4-(isoquinolin-3-yl)-7-methyl-6,7-dihydro-1H-imidazo[4,5-c]pyridin-5(4H)-yl)methanone]",< 500 nM
